Data on one molecule can be found in patent publication US10159676B2, “Induction of tumor hypoxia for cancer therapy” (Virginia Commonwealth University, priority 2008, dated 2018).

Entries after “also recorded” stand apart in the source; their conditions may differ.

For one data set, the system named is UCI101 tumor xenografts. The experiment in a line: Tumor and normal organ perfusion by DCE-MRI (gadolinium accumulation). It is filed as in vivo, nude mice. Particulars: stilbene 5c 50 mg/kg intraperitoneal, 4 hours after injection, same mice before vs after. On the procedure: FIGS. 1A and B. Study of tumor perfusion using accumulation of gadolinium at 30 min after gadolinium injection. (A) T1-weighted images before and after stilbene 5c treatment in the same mouse. Nude mice with established subcutaneously UCI101 tumor xenografts were analyzed with DCE-MRI for tumor perfusion. DCE-MRI images were collected for 30 min after injection of gadolinium (OmniScan) into tail veins. The same mice were studied before and after stilbene 5c treatment to avoid individual variation. The left panels show the T1-weighted images before injection of gadolinium. The right panels show images at 30 min after injection of gadolinium. […] (B) Average of calculated gadolinium concentrations in tumor and muscle before and after stilbene 5c treatment. […]
Nude mice with tumor xenografts were anesthetized with 1% isoflurane and mixed oxygen. […] After the initial rate is established, subsequent MRI studies focused on the sustained increase in gadolinium signals, which also provide qualitative and quantitative information for tissue perfusion. […]
Stilbene 5c was investigated to examine whether it can suppress tumor blood flow and eventually lead to tumor hypoxia. […] After injected with 20 μl of gadolinium (OmniScan) via the tail vein, mice were analyzed with a rapid sequence MRI every minute for total of 30 min. […]

A further data set concerns UCI tumor xenograft. The experiment in a line: Microvascular density by anti-CD34 immunohistochemistry and H & E staining of tumor and normal organs. The class given is in vivo, nude mice. On the procedure:
FIGS. 2A-B. Stilbene 5c treatment decreases microvascular density in tumor but not in normal organs. Nude mice with UCI tumor xenograft were treated with 10% DMSO or stilbene 5c at 50 mg/kg intraperitoneally. Mice were sacrificed at 4 hours after injection, and various organs and tumor were harvested for fixation and standard hematoxylin and eosin (H & E) staining. Immunohistochemical staining of each section was performed with anti-CD34 antibody to quantify the microvascular density. In the original immunohistochemical stained sections, brown staining indicated a positive signal for CD34 staining. (A) Shown are the black and white pictures in 200× fold magnification. The numbers of positive signals in each CD34 stained picture are counted and are shown in the right lower corner of each panel. (B) The averages and standard deviations of 4 different fields that show the most abundant microvascular density are plotted in a histogram. The sections from kidney cannot be scored due to the fact that all vessels around renal tubules are fused into a large network in the picture.
After mice were sacrificed, major organs and tumors were dissected and fixed in 10% formalin. Tissues were embedded in paraffin and sections were stained with H & E, and with antibody against CD34 for quantification of microvascular density. The scoring of microvascular density was based on the methods described by Weidner et al. by counting the CD34-positive signals in a photo frame of 200× magnification using Nikon ECLIPSE E800M microscope equipped with a Diagnostic Instruments Spot RT CCD camera.
We took tissues that were studied with DCE-MRI to investigate the vascular density of tumor and correlate with the results from DCE-MRI-derived vascular perfusion studies. We particularly examined sections from heart and brain, where the toxicity of colchicine site inhibitors was observed. Tissue sections were stained with standard H & E and anti-CD34 (an endothelial marker) antibody by immunohistochemistry staining. […] There was also no histological difference in tumor either. We then used anti-CD34 staining to score microvascular density in tumor and various normal organs (54, 55). The results are indicated at the right lower corner of each panel except kidney, which cannot be scored due to fusion of the capillary network rather than discrete dots or tubes in appearance.

With `COc1cc(/C=C\c2ccc(OC)c(N)c2)cc(OC)c1` [stilbene 5c, cis-3, 4′, 5-trimethoxy-3′-aminostilbene], the “concentration of gadolinium in tumor after stilbene 5c treatment (decreased to, average)” value with UCI101 tumor xenografts (30 min after gadolinium, 6 mice) amounted to 62.8%. For the same molecule, in the data set on UCI101 tumor xenografts, the “concentration of gadolinium in muscle after stilbene 5c treatment” value is on record as “no significant change; also recorded: did not change”. Further, the “decrease of tumor vascular density (CD34)” value in the data set on UCI tumor xenograft (50 mg/kg intraperitoneally, 4 hours after injection, vs 10% DMSO) is given as around 4 fold. For the same molecule, in the data set with UCI tumor xenograft (after stilbene 5c treatment), the “H & E staining changes in major organs” value was “did not show any significant changes” and the “microvascular density of tumor decreased to (CD34)” value is on record as “nearly one fourth”. Moreover, the “microvascular density of normal organs (heart, liver, kidney, brain)” value with UCI tumor xenograft (after stilbene 5c treatment 50 mg/kg intraperitoneally) is “does not change”.
